Values of other authors, collected in patent publication US20050186294A1 (priority 1999, published 2005).
Like-named read-outs stand apart in the source and are kept apart here.

Assays:
[1] = larger molecular weight molecules such as Testosterone
penile erection = conditions: oral, men
5 Phosphodiesterase = 5 Phosphodiesterase (Homo sapiens, UniProt O76074); conditions: in vitro, similar Molar concentrations
[2] = after oral arginine supplementation (6 g)

For CC1CCC(C(C)C)C(O)C1 (stereo not drawn) [Menthol], the “increase of membrane permeability” value [1] is given as 2-4 times.

For N=C(N)NCCC[C@H](N)C(=O)O [L-arginine], the “L-arginine level in the blood” value (after infusion of 6 g) is listed as 822 nM/ml, the “L-arginine level in the blood” value (after infusion of 30 g) is listed as 6223 nmol/mL and the blood concentration [2] is listed as 310 µM. The “detectable cGMP excretion rates in urine” value (cGMP; after infusion of 30 g and 6 g) was “rise in detectable cGMP excretion rates in urine” and the “increases in detectable cGMP” value (cGMP; [2]) was “not statistically significant”.

For CCCc1nn(C)c2c(=O)[nH]c(-c3cc(S(=O)(=O)N4CCN(C)CC4)ccc3OCC)nc12 [sildenafil], the “effectiveness to create a penile erection” value (penile erection; after first use) is given as 54%, the “effectiveness to create a penile erection” value (penile erection; by the eighth use) is given as 86% and the “inhibition of 5 Phosphodiesterase activity” value (5 Phosphodiesterase) is given as 85%.
